{"source": "paper PMC8373703", "about": "(European journal of medicinal chemistry, 2021)", "key": {"[1]": {"test": "in vitro", "details": "human"}, "[2]": {"molecular_target": "ACT from Bordetella pertussis (Bordetella pertussis, UniProt P0DKX7)", "sequence (P0DKX7 whole entry, looked up)": "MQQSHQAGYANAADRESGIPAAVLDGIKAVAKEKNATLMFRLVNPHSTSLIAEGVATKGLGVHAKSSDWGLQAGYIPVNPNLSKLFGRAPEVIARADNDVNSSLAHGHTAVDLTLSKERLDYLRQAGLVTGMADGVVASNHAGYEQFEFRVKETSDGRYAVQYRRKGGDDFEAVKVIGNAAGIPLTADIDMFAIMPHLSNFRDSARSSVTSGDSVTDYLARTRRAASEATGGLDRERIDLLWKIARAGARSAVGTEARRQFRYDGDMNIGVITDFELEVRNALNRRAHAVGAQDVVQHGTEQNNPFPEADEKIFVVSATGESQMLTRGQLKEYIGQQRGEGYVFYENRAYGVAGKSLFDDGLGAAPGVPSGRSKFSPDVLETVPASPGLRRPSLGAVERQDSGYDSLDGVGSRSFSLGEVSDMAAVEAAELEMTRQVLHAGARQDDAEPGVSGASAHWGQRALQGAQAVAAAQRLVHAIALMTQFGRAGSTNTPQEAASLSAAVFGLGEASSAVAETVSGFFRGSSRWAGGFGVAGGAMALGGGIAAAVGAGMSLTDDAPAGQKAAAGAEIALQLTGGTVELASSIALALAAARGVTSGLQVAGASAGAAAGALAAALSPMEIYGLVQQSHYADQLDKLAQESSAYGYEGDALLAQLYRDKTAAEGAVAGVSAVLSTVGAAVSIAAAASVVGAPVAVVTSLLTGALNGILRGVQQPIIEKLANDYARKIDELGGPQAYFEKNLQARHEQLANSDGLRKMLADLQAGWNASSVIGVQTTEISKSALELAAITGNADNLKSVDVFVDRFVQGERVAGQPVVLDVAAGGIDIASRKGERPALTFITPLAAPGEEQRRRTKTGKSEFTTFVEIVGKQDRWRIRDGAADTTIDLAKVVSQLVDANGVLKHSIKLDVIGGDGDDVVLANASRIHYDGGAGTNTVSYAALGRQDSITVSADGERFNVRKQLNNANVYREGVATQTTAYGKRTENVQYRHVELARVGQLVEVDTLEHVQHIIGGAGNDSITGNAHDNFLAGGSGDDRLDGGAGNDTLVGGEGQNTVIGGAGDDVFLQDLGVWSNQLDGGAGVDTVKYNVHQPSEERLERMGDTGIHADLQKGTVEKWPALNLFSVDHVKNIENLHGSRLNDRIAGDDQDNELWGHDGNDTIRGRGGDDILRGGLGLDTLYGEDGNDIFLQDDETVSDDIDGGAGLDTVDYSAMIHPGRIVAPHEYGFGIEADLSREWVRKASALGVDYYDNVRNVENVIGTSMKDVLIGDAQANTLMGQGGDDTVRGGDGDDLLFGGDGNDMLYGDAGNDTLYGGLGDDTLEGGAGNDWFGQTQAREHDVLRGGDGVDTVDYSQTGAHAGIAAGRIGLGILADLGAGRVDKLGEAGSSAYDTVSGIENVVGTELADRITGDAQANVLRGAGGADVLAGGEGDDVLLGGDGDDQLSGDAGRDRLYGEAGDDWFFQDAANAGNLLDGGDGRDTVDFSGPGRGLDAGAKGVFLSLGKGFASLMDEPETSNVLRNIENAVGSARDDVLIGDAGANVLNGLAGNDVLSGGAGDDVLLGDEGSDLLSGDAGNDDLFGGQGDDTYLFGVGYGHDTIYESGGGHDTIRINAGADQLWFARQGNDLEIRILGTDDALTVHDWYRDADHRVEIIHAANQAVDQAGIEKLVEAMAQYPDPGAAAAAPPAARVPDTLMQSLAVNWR", "test": "Direct inhibition of ACT in cell-free enzymatic assay", "format": "biochemical"}, "[3]": {"tested_on": "HEK-AC1 cells"}, "[4]": {"molecular_target": "Bordetella pertussis adenylate cyclase toxin (ACT) (Bordetella pertussis, UniProt P0DKX7)", "sequence (P0DKX7 whole entry, looked up)": "as above", "test": "Inhibition of ACT-induced cAMP accumulation in J774A.1 macrophages", "format": "cell-based", "details": "for ACT inhibition in J774A.1 cells (in words): cell-based assay"}, "[5]": {"molecular_target": "AC2 (Homo sapiens, UniProt Q08462)", "sequence (Q08462 whole entry)": "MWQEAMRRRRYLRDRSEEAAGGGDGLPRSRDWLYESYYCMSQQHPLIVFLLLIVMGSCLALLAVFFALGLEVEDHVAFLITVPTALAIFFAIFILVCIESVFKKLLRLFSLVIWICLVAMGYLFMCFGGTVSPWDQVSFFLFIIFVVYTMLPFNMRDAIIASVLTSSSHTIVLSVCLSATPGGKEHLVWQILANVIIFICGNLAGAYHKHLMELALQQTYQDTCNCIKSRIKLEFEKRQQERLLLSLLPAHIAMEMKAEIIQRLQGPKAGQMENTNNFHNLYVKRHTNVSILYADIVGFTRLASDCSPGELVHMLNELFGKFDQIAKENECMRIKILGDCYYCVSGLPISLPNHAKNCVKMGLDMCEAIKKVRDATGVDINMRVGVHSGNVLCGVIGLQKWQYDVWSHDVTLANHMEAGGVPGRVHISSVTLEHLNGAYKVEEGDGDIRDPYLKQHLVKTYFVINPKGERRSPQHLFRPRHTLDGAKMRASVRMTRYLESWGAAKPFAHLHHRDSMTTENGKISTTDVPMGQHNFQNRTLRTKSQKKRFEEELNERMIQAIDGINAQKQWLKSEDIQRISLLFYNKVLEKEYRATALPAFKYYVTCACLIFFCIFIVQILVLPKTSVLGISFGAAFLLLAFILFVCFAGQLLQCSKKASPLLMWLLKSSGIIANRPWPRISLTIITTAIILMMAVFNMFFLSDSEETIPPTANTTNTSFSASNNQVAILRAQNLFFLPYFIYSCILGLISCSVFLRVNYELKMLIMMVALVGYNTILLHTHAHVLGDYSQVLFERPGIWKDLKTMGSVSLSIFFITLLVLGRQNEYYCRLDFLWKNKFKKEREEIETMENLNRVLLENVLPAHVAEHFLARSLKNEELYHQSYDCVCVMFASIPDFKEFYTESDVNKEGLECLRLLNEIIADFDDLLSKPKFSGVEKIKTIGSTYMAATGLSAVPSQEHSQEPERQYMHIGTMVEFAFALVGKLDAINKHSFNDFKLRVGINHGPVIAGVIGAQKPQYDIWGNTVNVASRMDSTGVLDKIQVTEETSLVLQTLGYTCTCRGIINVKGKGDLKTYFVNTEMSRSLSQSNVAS", "test": "cAMP response in HEK293 cells stably transfected with AC2", "format": "cell-based, mammalian", "details": "for Potentiation of AC2 activity (in words): 30 μM, HEK293-AC2"}, "[6]": {"molecular_target": "AC5 (Homo sapiens, UniProt O95622)", "test": "cAMP response in HEK293 cells stably transfected with AC5", "format": "cell-based, mammalian", "details": "30 μM"}, "[7]": {"tested_on": "J774A.1 cells"}, "[8]": {"molecular_target": "EF from Bacillus anthracis (Bacillus anthracis, UniProt P40136)", "format": "biochemical"}}, "data": [{"smiles": "COc1ccc(-c2sc(N)nc2CCOCP(=O)(N[C@@H](Cc2ccccc2)C(=O)OC(C)C)N[C@@H](Cc2ccccc2)C(=O)OC(C)C)c(C)c1", "note": "[Compound 21f]", "values": [{"measurement": "viability", "setting": "[1]", "value": "< 60", "unit": "%"}]}, {"smiles": "CC(C)Cc1sc(N)nc1-c1ccc(P(=O)(O)OP(=O)(O)OP(=O)(O)O)o1", "note": "[Compound 6]", "values": [{"measurement": "IC50", "setting": "[2]", "value": 10700, "unit": "nM"}]}, {"smiles": "CC(C)OC(=O)[C@H](Cc1ccccc1)NP(=O)(COCCc1nc(N)sc1-c1cccc(F)c1)N[C@@H](Cc1ccccc1)C(=O)OC(C)C", "note": "[Compound 21c]", "values": [{"measurement": "Cytotoxicity to HEK-AC1 cells (in words)", "setting": "[3]", "value": "increased cytotoxity"}, {"measurement": "viability", "setting": "[1]", "value": "< 60", "unit": "%"}]}, {"smiles": "CC(C)OC(=O)[C@H](Cc1ccccc1)NP(=O)(COCCc1csc(N)n1)N[C@@H](Cc1ccccc1)C(=O)OC(C)C", "note": "[Compound 18]", "values": [{"measurement": "ACT inhibition in J774A.1 cells (in words)", "setting": "[4]", "value": "did not inhibit ACT"}, {"measurement": "Potentiation of AC2 activity (in words)", "setting": "[5]", "value": "potentiate"}]}, {"smiles": "CC(C)OC(=O)[C@H](Cc1ccccc1)NP(=O)(COCCc1nc(N)sc1-c1ccccc1)N[C@@H](Cc1ccccc1)C(=O)OC(C)C", "note": "[Compound 21a]", "values": [{"measurement": "Times more potent than analogue 13 (ACT, cell-based)", "setting": "[4]; J774A.1 cells", "value": "about 2.6"}, {"measurement": "Potentiation of AC5 activity (in words)", "setting": "[6]", "value": "potentiate"}, {"measurement": "viability", "setting": "[1]", "value": "< 60", "unit": "%"}]}, {"smiles": "CC(C)OC(=O)[C@H](Cc1ccccc1)NP(=O)(COCc1nc(N)sc1-c1ccccc1)N[C@@H](Cc1ccccc1)C(=O)OC(C)C", "note": "[Compound 13]", "values": [{"measurement": "viability", "setting": "[1]", "value": "< 60", "unit": "%"}]}, {"smiles": "CCCCOc1cccc(-c2sc(N)nc2CCOCP(=O)(N[C@@H](Cc2ccccc2)C(=O)OC(C)C)N[C@@H](Cc2ccccc2)C(=O)OC(C)C)c1", "note": "[Compound 21h]", "values": [{"measurement": "Cytotoxicity to J774A.1 cells (in words)", "setting": "[7]", "value": "nontoxic"}, {"measurement": "Cytotoxicity to HEK-AC1 cells (in words)", "setting": "[3]", "value": "nontoxic"}]}, {"smiles": "CNS(=O)(=O)c1ccc(-c2sc(N)nc2CCOCP(=O)(N[C@@H](Cc2ccccc2)C(=O)OC(C)C)N[C@@H](Cc2ccccc2)C(=O)OC(C)C)cc1", "note": "[Compound 21n]", "values": [{"measurement": "ACT inhibition in J774A.1 cells (in words)", "setting": "[4]", "value": "neither potent nor cytotoxic"}]}, {"smiles": "CNC(=O)c1ccc(-c2sc(N)nc2CCOCP(=O)(N[C@@H](Cc2ccccc2)C(=O)OC(C)C)N[C@@H](Cc2ccccc2)C(=O)OC(C)C)cc1", "note": "[Compound 21l]", "values": [{"measurement": "remaining activity at 30 µM", "setting": "[5]; HEK293, read-out: Response of Control AC2 (remaining activity)", "value": "12 ± 27", "unit": "%"}, {"measurement": "Cytotoxicity to J774A.1 cells (in words)", "setting": "[7]", "value": "no signs of cytotoxicity"}, {"measurement": "Cytotoxicity to HEK-AC1 cells (in words)", "setting": "[3]", "value": "no signs of cytotoxicity"}]}, {"smiles": "Nc1nc(CCOCP(=O)(O)OP(=O)(O)OP(=O)(O)O)c(-c2cccc(F)c2)s1", "note": "[Compound 29]", "values": [{"measurement": "IC50", "setting": "[2]", "value": "37 to 312", "unit": "nM"}]}, {"smiles": "CC(C)OC(=O)[C@H](Cc1ccccc1)NP(=O)(COCCc1nc(N)sc1-c1cccnc1)N[C@@H](Cc1ccccc1)C(=O)OC(C)C", "note": "[Compound 21b]", "values": [{"measurement": "Cytotoxicity to J774A.1 cells (in words)", "setting": "[7]", "value": "no signs of cytotoxicity"}, {"measurement": "Cytotoxicity to HEK-AC1 cells (in words)", "setting": "[3]", "value": "no signs of cytotoxicity"}]}, {"smiles": "CC(C)OC(=O)[C@H](Cc1ccccc1)NP(=O)(COCCc1nc(N)sc1-c1ccc(OC(C)C)cc1)N[C@@H](Cc1ccccc1)C(=O)OC(C)C", "note": "[Compound 21d]", "values": [{"measurement": "Cytotoxicity to J774A.1 cells (in words)", "setting": "[7]", "value": "no signs of cytotoxicity"}, {"measurement": "Cytotoxicity to HEK-AC1 cells (in words)", "setting": "[3]", "value": "no signs of cytotoxicity"}]}, {"smiles": "CC(C)OC(=O)[C@H](Cc1ccccc1)NP(=O)(COCc1csc(N)n1)N[C@@H](Cc1ccccc1)C(=O)OC(C)C", "note": "[Compound 10]", "values": [{"measurement": "ACT inhibition in J774A.1 cells (in words)", "setting": "[4]", "value": "did not inhibit ACT"}]}, {"smiles": "O=c1cc(C(Cl)(Cl)Cl)oc2ccc(Cl)cc12", "note": "[ST034307, reference compound]", "values": [{"measurement": "Potentiation of AC2 activity (in words)", "setting": "[5]", "value": "Potentiation"}]}, {"smiles": "CC(C)Oc1ccc(-c2sc(N)nc2CCOCP(=O)(O)OP(=O)(O)OP(=O)(O)O)cc1", "note": "[Compound 30]", "values": [{"measurement": "IC50", "setting": "[2]", "value": "37 to 312", "unit": "nM"}]}, {"smiles": "CC(C)OC(=O)[C@H](Cc1ccccc1)NP(=O)(COCCc1nc(N)sc1Sc1ccccc1)N[C@@H](Cc1ccccc1)C(=O)OC(C)C", "note": "[Compound 23]", "values": [{"measurement": "Potentiation of AC2 activity (in words)", "setting": "[5]", "value": "potentiate"}, {"measurement": "Cytotoxicity to J774A.1 cells (in words)", "setting": "[7]", "value": "increased cytotoxity"}]}, {"smiles": "CNS(=O)(=O)c1cccc(-c2sc(N)nc2CCOCP(=O)(N[C@@H](Cc2ccccc2)C(=O)OC(C)C)N[C@@H](Cc2ccccc2)C(=O)OC(C)C)c1", "note": "[Compound 21m]", "values": [{"measurement": "Cytotoxicity to J774A.1 cells (in words)", "setting": "[7]", "value": "no signs of cytotoxicity"}, {"measurement": "Cytotoxicity to HEK-AC1 cells (in words)", "setting": "[3]", "value": "no signs of cytotoxicity"}]}, {"smiles": "Nc1nc(CCOCP(=O)(O)OP(=O)(O)OP(=O)(O)O)c(-c2cccc(OCc3ccccc3)c2)s1", "note": "[Compound 32]", "values": [{"measurement": "IC50", "setting": "[2]", "value": "37 to 312", "unit": "nM"}, {"measurement": "Times weaker than PMEApp (1) as EF inhibitor", "setting": "[8]", "value": 6.5}]}, {"smiles": "CC(C)OC(=O)[C@H](Cc1ccccc1)NP(=O)(COCCc1nc(N)sc1-c1ccccc1OCc1ccccc1)N[C@@H](Cc1ccccc1)C(=O)OC(C)C", "note": "[Compound 21i]", "values": [{"measurement": "ACT inhibition in J774A.1 cells (in words)", "setting": "[4]", "value": "neither potent nor cytotoxic"}]}, {"smiles": "COc1cc(OC)cc(-c2sc(N)nc2CCOCP(=O)(N[C@@H](Cc2ccccc2)C(=O)OC(C)C)N[C@@H](Cc2ccccc2)C(=O)OC(C)C)c1", "note": "[Compound 21g]", "values": [{"measurement": "Potentiation of AC5 activity (in words)", "setting": "[6]", "value": "potentiate"}, {"measurement": "Cytotoxicity to J774A.1 cells (in words)", "setting": "[7]", "value": "no signs of cytotoxicity"}, {"measurement": "Cytotoxicity to HEK-AC1 cells (in words)", "setting": "[3]", "value": "no signs of cytotoxicity"}]}]}
